# Experiments:
# δ-OR WT (HEK293) = δ-OR WT (HEK293) (Homo sapiens, UniProt P41143); format: binding
# δ-OR N131A (HEK293) = δ-OR N131A (HEK293) (Homo sapiens, UniProt P41143, N131A); format: binding
# δ-OR D95N (HEK293) = δ-OR D95N (HEK293) (Homo sapiens, UniProt P41143, D95N)
# δ-OR D95A (HEK293) = δ-OR D95A (HEK293) (Homo sapiens, UniProt P41143, D95A)
# δ-OR [1] = details: cited from earlier work
# [2] = tested on: δ-OR sodium-anchored residue mutants; assay: δ-OR β-arrestin recruitment assay; details: sodium-anchored residue mutants compared to WT
# [3] = tested on: δ-OR sodium-anchored residue mutants; assay: cAMP assay; format: cell-based, human
# WT δ-OR = WT δ-OR (Homo sapiens, UniProt P41143); assay: δ-OR β-arrestin recruitment assay
# WT δ-OR, sequence (P41143 whole entry): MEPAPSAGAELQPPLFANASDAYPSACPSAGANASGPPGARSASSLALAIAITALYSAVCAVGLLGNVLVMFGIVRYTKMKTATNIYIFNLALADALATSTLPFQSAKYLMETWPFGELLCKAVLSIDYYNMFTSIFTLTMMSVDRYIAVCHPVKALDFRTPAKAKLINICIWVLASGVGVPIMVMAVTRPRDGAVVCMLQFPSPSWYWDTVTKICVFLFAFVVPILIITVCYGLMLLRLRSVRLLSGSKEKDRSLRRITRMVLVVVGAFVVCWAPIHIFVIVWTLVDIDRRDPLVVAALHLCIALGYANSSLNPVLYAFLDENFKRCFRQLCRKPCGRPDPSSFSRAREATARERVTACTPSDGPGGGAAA
# δ-OR [4] = biological target: δ-OR (Homo sapiens, UniProt P41143); assay: cAMP assay; format: cell-based; details: receptors transfected with 15 µg DNA
# δ-OR (Homo sapiens, UniProt P41143), sequence (P41143 whole entry): as above
# [5] = cooperativity of sodium with DADLE
# δ-OR D95N (HEK293), sequence (P41143 whole entry D95N): as the sequence (P41143 whole entry) above, with D95N counted along it
# δ-OR D95A (HEK293), sequence (P41143 whole entry D95A): as the sequence (P41143 whole entry) above, with D95A counted along it
# δ-OR N131A (HEK293), sequence (P41143 whole entry N131A): as the sequence (P41143 whole entry) above, with N131A counted along it
# δ-OR WT (HEK293), sequence (P41143 whole entry): as the sequence (P41143 whole entry) above
compound,measurement,setting,value
[Na+] [sodium],Hill Coefficient,δ-OR WT (HEK293),0.56 ± 0.16
same,Na+ pKB ± SEM,"δ-OR WT (HEK293); allosteric model, orthosteric ligand DADLE",1.88 ± 0.10
same,pα ± SEM,δ-OR WT (HEK293); [5],1.93 ± 0.34
same,α,δ-OR WT (HEK293); [5],0.012
same,Kb,"δ-OR WT (HEK293); read-out: Na+ KB, allosteric model, orthosteric ligand DADLE",13.3 mM
same,Hill Coefficient,δ-OR N131A (HEK293),NAE
same,Na+ KB,δ-OR N131A (HEK293),NAE
same,Na+ pKB ± SEM,δ-OR N131A (HEK293),NAE
same,pα ± SEM,δ-OR N131A (HEK293),NAE
same,α,δ-OR N131A (HEK293),NAE
same,Hill Coefficient,δ-OR D95N (HEK293),NAE
same,Na+ KB,δ-OR D95N (HEK293),NAE
same,Na+ pKB ± SEM,δ-OR D95N (HEK293),NAE
same,pα ± SEM,δ-OR D95N (HEK293),NAE
same,α,δ-OR D95N (HEK293),NAE
same,Hill Coefficient,δ-OR D95A (HEK293),NAE
same,Na+ KB,δ-OR D95A (HEK293),NAE
same,Na+ pKB ± SEM,δ-OR D95A (HEK293),NAE
same,pα ± SEM,δ-OR D95A (HEK293),NAE
same,α,δ-OR D95A (HEK293),NAE
C=CCN1C[C@H](C)N([C@H](c2ccc(C(=O)N(CC)CC)cc2)c2cccc(O)c2)C[C@H]1C,effect of sodium ions on binding to the receptor,δ-OR [1],minimally affected
same,β-arrestin signaling,[2],low to moderate reduction
same,G-protein signaling,[3]; sodium-anchored residue mutants compared to WT,low to moderate reduction
Oc1ccc2c3c1O[C@H]1c4oc5ccccc5c4C[C@@]4(O)[C@@H](C2)N(CC2CC2)CC[C@]314 [naltriben],agonist activity at the β-arrestin pathway,WT δ-OR,no apparent agonist activity
Oc1ccc2c3c1O[C@H]1c4[nH]c5ccccc5c4C[C@@]4(O)[C@@H](C2)N(CC2CC2)CC[C@]314 [naltrindole],activity at Gαi signaling,δ-OR [4],weak partial agonist activity
same,agonist activity at the β-arrestin pathway,WT δ-OR,no apparent agonist activity
O=C1/C(=C/c2ccccc2)C[C@@]2(O)[C@H]3Cc4ccc(O)c5c4[C@@]2(CCN3CC2CC2)[C@H]1O5 [BNTX],agonist activity at the β-arrestin pathway,WT δ-OR,no apparent agonist activity
DADLE,G protein agonist efficacy,"[3]; Asp95Ala, Asn310Ala and Asn314Ala mutants",low to moderate reduction

# From PMC3931418 (Nature, 2014)
